Experimental data published in patent publication US20240285770A1, “PRECIPITATION SUPPRESSING AGENT” (Nippon Shinyaku Co., Ltd., priority 2021, published 2024).

Experiments:
[1] = Precipitation suppression with trehalose: absorbance at 620 nm of antisense oligomer in KCl/NaCl solution assumed to be in urine; format: physicochemical; conditions: Example 7: trehalose 45 to 180 mg/mL with PMO Nos. 1, 2, 7, and 8, 37° C., Tables 18 to 21
Description: The presence or absence of the precipitation suppressing effects can be determined by adding the antisense oligomer and the precipitation suppressing agent in a solvent simulating urine and examining as described in Examples whether or not the precipitation suppressing agent reduces an increase in absorbance caused by precipitation of the antisense oligomer. For example, after the antisense oligomer and the precipitation suppressing agent are added to the solvent (e.g., 5 minutes later, 10 minutes later, 15 minutes later, 20 minutes later, 25 minutes later, 30 minutes later, 40 minutes later, 50 minutes later, 60 minutes later, 70 minutes later, 80 minutes later, or 90 minutes later), the absorbance can be determined under the conditions of 37° C. At this time, compared to a case of adding no precipitation suppressing agent, it can be determined to be effective in suppressing precipitation when a time until the precipitation is observed (until the increased absorbance at 620 nm is observed) or the absorbance at 620 nm are reduced, for example, by 5% or more, 10% or more, 20% or more, 30% or more, 40% or more, or 50% or more in the case of adding the precipitation suppressing agent. […]

[2] = Precipitation suppression with sucrose: absorbance at 620 nm of antisense oligomer in KCl/NaCl solution assumed to be in urine; format: physicochemical
Description: The presence or absence of the precipitation suppressing effects can be determined by adding the antisense oligomer and the precipitation suppressing agent in a solvent simulating urine and examining as described in Examples whether or not the precipitation suppressing agent reduces an increase in absorbance caused by precipitation of the antisense oligomer. For example, after the antisense oligomer and the precipitation suppressing agent are added to the solvent (e.g., 5 minutes later, 10 minutes later, 15 minutes later, 20 minutes later, 25 minutes later, 30 minutes later, 40 minutes later, 50 minutes later, 60 minutes later, 70 minutes later, 80 minutes later, or 90 minutes later), the absorbance can be determined under the conditions of 37° C. At this time, compared to a case of adding no precipitation suppressing agent, it can be determined to be effective in suppressing precipitation when a time until the precipitation is observed (until the increased absorbance at 620 nm is observed) or the absorbance at 620 nm are reduced, for example, by 5% or more, 10% or more, 20% or more, 30% or more, 40% or more, or 50% or more in the case of adding the precipitation suppressing agent. […] The absorbance at 620 nm of the solution thus mixed was measured using a plate reader, Infinite F200 Pro (manufactured by Tecan Group Ltd.) under heating conditions of 37° C. […]

kidney [3] = format: in vivo, C57BL/6J male mice; conditions: sucrose 20 to 100 mg/mL co-administered with PMO No. 8 50 mg/mL, 10 mL/kg tail vein, mice
Description: The antisense oligomer of PMO No. 8 was dissolved in water for injection comprising 0.9% sodium chloride, and a solution obtained by dissolving sucrose (manufactured by FUJIFILM Wako Pure Chemical Corporation) with physiological saline was added thereto to prepare a dosing solution comprising each of the antisense oligomer and sucrose at the concentrations shown in Tables 12 and 13. The obtained dosing solutions were administered into the tail vein of 6-week-old C57BL/6J male mice (N=3) at the amount of dosing solution shown in Table 12 (10 mL/kg). Next day, some mice to which the antisense oligomer of PMO No. 8 had been administered were subjected to autopsy, and formalin-fixed paraffin-embedded samples of the respective kidneys were prepared. Sections obtained by slicing the samples were subjected to hematoxylin-eosin staining and a histopathological test of the sections was performed.

kidney [4] = format: in vivo, C57BL/6J male mice; conditions: sucrose 200 mg/mL co-administered with PMO No. 11 130 mg/mL, 20 mL/kg tail vein, mice
Description: The antisense oligomer of PMO No. 11 was dissolved in physiological saline to prepare a control dosing solution comprising the antisense oligomer at the concentration shown in Table 14 and comprising no sucrose. Next, the antisense oligomer of PMO No. 11 and sucrose were dissolved in physiological saline to prepare dosing solutions comprising the antisense oligomer and sucrose at the concentrations shown in Table 14. The obtained dosing solutions were administered into the tail vein of 6-week-old C57BL/6J male mice (N=5) at 20 mL/kg. Next day, the mice were subjected to autopsy, and formalin-fixed paraffin-embedded samples of the respective kidneys were prepared. Sections obtained by slicing the samples were subjected to hematoxylin-eosin staining and a histopathological test of the sections was performed. Compared to the mice to which the control dosing solution comprising no sucrose has been administered, it was determined that the precipitation was suppressed in a case where there was improvement in the findings on the histopathological test of the kidney of the mice to which the dosing solution comprising sucrose has been administered.

SMILES | precipitation suppressing effect on antisense oligomers [1] | precipitation suppressing effect on antisense oligomers ([2]; Example 3: sucrose 45 to 270 mg/mL with PMO Nos. 8, 9, 10, 11, KCl and NaCl, 37° C., Tables 4 to 11) | precipitation suppressing effect on antisense oligomers ([2]; Example 6: sucrose 45 to 135 mg/mL with PMO Nos. 1, 2, and 7, 37° C., Tables 15 to 17) | precipitation suppressing effect in kidney (amount of precipitates, basophilic substances in lumens of renal tubules) (kidney [3]) | precipitation suppression in kidney (improvement in findings on histopathological test) (kidney [4])
OC[C@H]1O[C@H](O[C@H]2O[C@H](CO)[C@@H](O)[C@H](O)[C@H]2O)[C@H](O)[C@@H](O)[C@@H]1O [trehalose] | suppress the precipitation of antisense oligomers | – | – | – | –
OC[C@H]1O[C@@](CO)(O[C@H]2O[C@H](CO)[C@@H](O)[C@H](O)[C@H]2O)[C@@H](O)[C@@H]1O [sucrose] | – | suppress the precipitation of antisense oligomers | suppress the precipitation of antisense oligomers | amount of precipitates decreased according to the concentrations of sucrose | confirmed to suppress precipitation
